Measured values published in US20160031855A1, “PROTEIN KINASE INHIBITORS” (ORION CORPORATION, priority 2013, published 2016).
Where a name gives a salt, the structure may show the parent alone.

Target: T1, FGFR1 kinase (Homo sapiens, UniProt P11362)
T1 construct: purchased Upstate, USA
Assay: TR-FRET assay with FGFR1 kinase
Assay type: biochemical
Conditions: 13 μM ATP; for IC50: dose response, read-out: IC50 of FGFR1 inhibition; for inhibition at 1 µM / Inhibition (%) of FGFR1 at 1000 nM: compound at 1000 nM
Protocol: 1. Inhibition of FGFR1 kinase
Compounds were screened in the TR-FRET assay with FGFR1 kinase. 5 ng of FGFR1 [Upstate, USA] kinase was used for assay. The compound was incubated with the kinase for 30 minutes at room temperature. After the incubation, substrate mix [40 nM Ultra light poly GT (Perkin Elmer, USA) and 13 μM ATP (Sigma)] was added. The above reaction was stopped by the addition of 40 mM EDTA after the 30 min kinase reaction. The Eu-labelled antiphospho-tyrosine antibody [Perkin Elmer, USA] was added at 0.5 nM and the fluorescence emission at 615 nm/665 nm [excitation at 340 nm] was measured. The compounds were initially screened at 100 nM and 1 μM concentrations. The compounds with >50% inhibition at 100 nM of FGFR1 were taken for the full dose response studies. The final DMSO concentration in the assay was 1%. For IC50 determination, ⅓^rd serial dilution was made from the 20 mM DMSO stock solution. 2 μl of these were transferred to the test wells containing […] of the reaction mixture [total reaction volume 20 μl]. The fluorescence was measured in Perkin Elmer Wallac 1420 Multilabel Counter Victor 3. The IC50 was determined by fitting the dose response data to sigmoidal curve fitting equation using GraphPad Prism software V5.

T1 sequence (P11362 22-822): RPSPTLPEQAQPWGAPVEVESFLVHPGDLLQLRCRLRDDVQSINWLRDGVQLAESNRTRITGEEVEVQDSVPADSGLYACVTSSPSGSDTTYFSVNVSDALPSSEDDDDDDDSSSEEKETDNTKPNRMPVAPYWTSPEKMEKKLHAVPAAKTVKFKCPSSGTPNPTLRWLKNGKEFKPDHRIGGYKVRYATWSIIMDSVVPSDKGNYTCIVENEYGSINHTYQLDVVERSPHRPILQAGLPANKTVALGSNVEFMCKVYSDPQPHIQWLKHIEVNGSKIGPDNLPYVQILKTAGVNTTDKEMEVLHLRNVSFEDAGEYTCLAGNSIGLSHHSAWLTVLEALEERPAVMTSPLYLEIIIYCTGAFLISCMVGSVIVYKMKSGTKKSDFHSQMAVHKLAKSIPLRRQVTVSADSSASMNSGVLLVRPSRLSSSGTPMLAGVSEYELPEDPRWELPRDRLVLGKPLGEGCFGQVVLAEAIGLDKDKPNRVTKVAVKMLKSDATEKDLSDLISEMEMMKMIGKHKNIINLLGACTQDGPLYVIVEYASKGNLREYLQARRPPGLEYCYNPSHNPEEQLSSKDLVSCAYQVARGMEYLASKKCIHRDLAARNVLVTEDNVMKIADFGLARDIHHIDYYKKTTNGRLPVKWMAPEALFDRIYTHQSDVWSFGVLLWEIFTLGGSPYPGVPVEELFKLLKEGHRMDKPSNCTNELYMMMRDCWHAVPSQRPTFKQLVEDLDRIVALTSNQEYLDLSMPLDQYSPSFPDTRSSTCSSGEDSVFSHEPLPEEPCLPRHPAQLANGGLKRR

Row | SMILES | IC50 | inhibition at 1 µM | Inhibition (%) of FGFR1 at 1000 nM
1 | Cn1cc(-c2ccc3c(c2)ncn3-c2cc(-c3ccc(F)cc3F)cc(Nc3ccn(C)n3)n2)cn1 [Example 1, 4-(2,4-Difluorophenyl)-N-(1-methyl-1H-pyrazol-3-yl)-6-(5-(1-methyl-1H-pyrazol-4-yl)-1H-benzo[d]imidazol-1-yl)pyridin-2-amine] | 16.5 nM | 97% | –
2 | CCS(=O)(=O)Nc1cc(-c2ccc(F)cc2F)cc(-n2cnc3cc(-c4cnn(C)c4)ccc32)n1 [Example 5 (imido), Sodium salt of imido form of N-(4-(2,4-difluorophenyl)-6-(5-(1-methyl-1H-pyrazol-4yl)-1H-benzo[d]imidazol-1-yl)pyridin-2-yl)ethanesulfonamide] | 4.4 nM | – | 98%
3 | Cn1cc(-c2ccc3c(c2)ncn3-c2cc(-c3ccccc3F)cc(NS(=O)(=O)C3CC3)n2)cn1 [Example 8, N-(4-(2-fluorophenyl)-6-(5-(1-methyl-1H-pyrazol-4-yl)-1H-benzo[d]imidazol-1-yl)pyridin-2-yl)cyclopropanesulfonamide] | 5.42 nM | 99% | –
4 | Cn1cc(-c2ccc3c(c2)ncn3-c2cc(-c3ccccc3F)cc(NS(C)(=O)=O)n2)cn1 [Example 10, N-(4-(2-fluorophenyl)-6-(5-(1-methyl-1H-pyrazol-4-yl)-1H-benzo[d]imidazol-1-yl)pyridin-2-yl)methanesulfonamide] | 5.8 nM | 97% | –
5 | CC(C)S(=O)(=O)Nc1cc(-c2ccccc2F)cc(-n2cnc3cc(-c4cnn(C)c4)ccc32)n1 [Example 12 (imido), Sodium salt of imido form of N-(4-(2-fluorophenyl)-6-(5-(1-methyl-1H-pyrazol-4-yl)-1H-benzo[d]imidazol-1-yl)pyridin-2-yl)propane-2-sulfonamide] | 5.2 nM | – | 99%
6 | Cn1cc(-c2ccc3c(c2)ncn3-c2cc(-c3ccc(F)cc3)cc(NS(=O)(=O)C3CC3)n2)cn1 [Example 14] | 14.4 nM | 98% | –
7 | CC(C)S(=O)(=O)Nc1cc(-c2ccc(F)cc2)cc(-n2cnc3cc(-c4cnn(C)c4)ccc32)n1 [Example 17 (imido), Sodium salt of imido form: of N-(4-(4-fluorophenyl)-6-(5-(1-methyl-1H-pyrazol-4-yl)-1H-benzo[d]imidazol-1-yl)pyridin-2-yl)propane-2-sulfonamide] | 5.2 nM | – | 97%
8 | CC(C)S(=O)(=O)Nc1cc(-c2ccc(F)cc2)cc(-n2cnc3cc(-c4cnn(C)c4)ccc32)n1 [Example 17, N-(4-(4-fluorophenyl)-6-(5-(1-methyl-1H-pyrazol-4-yl)-1H-benzo[d]imidazol-1-yl)pyridin-2-yl)propane-2-sulfonamide] | 4.6 nM | 96% | –
9 | Cn1cc(-c2ccc3c(c2)ncn3-c2cc(-c3ncccc3F)cc(NS(=O)(=O)C3CC3)n2)cn1 [Example 18, N-(3-fluoro-6′-(5-(1-methyl-1H-pyrazol-4-yl)-1H-benzo[d]imidazol-1-yl)-[2,4′-bipyridin]-2-yl)cyclopropanesulfonamide] | 5 nM | – | 97%
10 | CC(=O)Nc1cc(-c2ncccc2F)cc(-n2cnc3cc(-c4cnn(C)c4)ccc32)n1 [Example 19, N-(3-fluoro-6′-(5-(1-methyl-1H-pyrazol-4-yl)-1H-benzo[d]imidazol-1-yl)-[2,4′-bipyridin]-2′-yl)acetamide] | 28.5 nM | 96% | –
11 | Cn1cc(-c2ccc3c(c2)ncn3-c2cc(-c3ccccc3F)nc(NS(=O)(=O)C3CC3)n2)cn1 [Example 22, N-(4-(2-fluorophenyl)-6-(5-(1-methyl-1H-pyrazol-4-yl)-1H-benzo[d]imidazol-1-yl)pyrimidin-2-yl)cyclopropanesulfonamide] | 9.2 nM | 97% | –
12 | O=S(=O)(Nc1cc(-c2ccc(F)cc2F)cc(-n2cnc3cc(-n4cccn4)ccc32)n1)C1CC1 [Example 23, N-(6-(5-(1H-pyrazol-1-yl)-1H-benzo[d]imidazol-1-yl)-4-(2,4-difluorophenyl)-pyridin-2-yl)cyclopropanesulfonamide] | 10 nM | 97% | –
13 | CC(=O)Nc1cc(-c2ncc(F)cc2F)cc(-n2cnc3cc(-c4cnn(C)c4)ccc32)n1 [Example 26, N-(3,5-difluoro-6′-(5-(1-methyl-1H-pyrazol-4-yl)-1H-benzo[d]imidazol-1-yl)-[2,4′-bipyridin]-2′-yl)acetamide] | 21.9 nM | 94% | –

More lines, in order of falling IC50, values ahead:

Row | IC50 | inhibition at 1 µM | Inhibition (%) of FGFR1 at 1000 nM | SMILES
14 | 4.3 nM | 98% | – | Cn1cc(-c2ccc3c(c2)ncn3-c2cc(-c3ccc(F)cc3F)cc(NS(C)(=O)=O)n2)cn1 [Example 4, N-(4-(2,4-difluorophenyl)-6-(5-(1-methyl-1H-pyrazol-4-yl)-1H-benzo[d]-imidazol-1-yl)pyridin-2-yl)methanesulfonamide]
15 | 3.9 nM | 99% | – | Cn1cc(-c2ccc3c(c2)ncn3-c2cc(-c3ccc(F)cc3F)cc(NS(=O)(=O)C3CC3)n2)cn1 [Example 2, N-(4-(2,4-difluorophenyl)-6-(5-(1-methyl-1H-pyrazol-4-yl)-1H-benzo[d]-imidazol-1-yl)pyridin-2-yl)cyclopropanesulfonamide]
16 | 3.7 nM | 99% | – | CN(C)CCn1cc(-c2ccc3c(c2)ncn3-c2cc(-c3ccc(F)cc3F)cc(NS(=O)(=O)C3CC3)n2)cn1 [Example 21, N-(4-(2,4-difluorophenyl)-6-(5-(1-(2-(dimethylamino)ethyl)-1H-pyrazol-4-yl)-1H-benzo[d]imidazol-1-yl)pyridin-2-yl)cyclopropanesulfonamide]
17 | 3.4 nM | 97% | – | Cn1cc(-c2ccc3c(c2)ncn3-c2cc(-c3ccc(F)cc3)cc(NS(C)(=O)=O)n2)cn1 [Example 16, N-(4-(4-fluorophenyl)-6-(5-(1-methyl-1H-pyrazol-4-yl)-1H-benzo[d]imidazol-1-yl)pyridin-2-yl)methanesulfonamide]
18 | 3.3 nM | – | 97% | Cn1cc(-c2ccc3c(c2)ncn3-c2cc(-c3ccc(F)cc3F)cc(NS(=O)(=O)C3CC3)n2)cn1 [Example 2 (imido), Sodium salt of imido form of N-(4-(2,4-difluorophenyl)-6-(5-(1-methyl-1H-pyrazol-4-yl)-1H-benzo[d]imidazol-1-yl)pyridin-2-yl)cyclopropanesulfonamide]
19 | 3.3 nM | – | 97% | Cn1cc(-c2ccc3c(c2)ncn3-c2cc(-c3ccccc3F)cc(NS(=O)(=O)C3CC3)n2)cn1 [Example 8 (imido), Sodium salt of imido form of N-(4-(2-fluorophenyl)-6-(5-(1-methyl-1H-pyrazol-4-yl)-1H-benzo[d]imidazol-1-yl)pyridin-2-yl)cyclopropanesulfonamide]
20 | 3.2 nM | – | 98% | CCS(=O)(=O)Nc1cc(-c2ccccc2F)cc(-n2cnc3cc(-c4cnn(C)c4)ccc32)n1 [Example 11 (imido), Sodium salt of imido form of N-(4-(2-fluorophenyl)-6-(5-(1-methyl-1H-pyrazol-4-yl)-1H-benzo[d]imidazol-1-yl)pyridin-2-yl)ethanesulfonamide]
21 | 3.1 nM | 97% | – | Cn1cc(-c2ccc3c(c2)ncn3-c2cc(-c3ncc(F)cc3F)cc(NS(=O)(=O)C3CC3)n2)cn1 [Example 25, N-(3,5-difluoro-6′-(5-(1-methyl-1H-pyrazol-4-yl)-1H-benzo[d]imidazol-1-yl)-[2,4′-bipyridin]-2′-yl)cyclopropanesulfonamide]
22 | 2.8 nM | 98% | – | CCS(=O)(=O)Nc1cc(-c2ccccc2F)cc(-n2cnc3cc(-c4cnn(C)c4)ccc32)n1 [Example 11, N-(4-(2-fluorophenyl)-6-(5-(1-methyl-1H-pyrazol-4-yl)-1H-benzo[d]imidazol-1-yl)pyridin-2-yl)ethanesulfonamide]
23 | 1.7 nM | – | 98% | CC(C)S(=O)(=O)Nc1cc(-c2ccc(F)cc2F)cc(-n2cnc3cc(-c4cnn(C)c4)ccc32)n1 [Example 6 (imido), Imido form of N-(4-(2,4-difluorophenyl)-6-(5-(1-methyl-1H-pyrazol-4-yl)-1H-benzo[d]imidazol-1-yl)pyridin-2-yl)propane-2-sulfonamide]
24 | 1.7 nM | 99% | – | CC(C)S(=O)(=O)Nc1cc(-c2ccc(F)cc2F)cc(-n2cnc3cc(-c4cnn(C)c4)ccc32)n1 [Example 6, N-(4-(2,4-difluorophenyl)-6-(5-(1-methyl-1H-pyrazol-4-yl)-1H-benzo[d]-imidazol-1-yl)pyridin-2-yl)propane-2-sulfonamide]
25 | 1.5 nM | 97% | – | CC(C)S(=O)(=O)Nc1cc(-c2ccccc2F)cc(-n2cnc3cc(-c4cnn(C)c4)ccc32)n1 [Example 12, N-(4-(2-fluorophenyl)-6-(5-(1-methyl-1H-pyrazol-4-yl)-1H-benzo[d]imidazol-1-yl)pyridin-2-yl)propane-2-sulfonamide]
26 | 1.1 nM | 99% | – | CCS(=O)(=O)Nc1cc(-c2ccc(F)cc2F)cc(-n2cnc3cc(-c4cnn(C)c4)ccc32)n1 [Example 5, N-(4-(2,4-difluorophenyl)-6-(5-(1-methyl-1H-pyrazol-4-yl)-1H-benzo[d]-imidazol-1-yl)pyridin-2-yl)ethanesulfonamide]
